Experimental data published in ChEMBL document CHEMBL1125711, “Flavins as potential antimalarials. 2. 3-Methyl-10-(substituted-phenyl) flavins” (J Med Chem, 1991).

These compounds were tested on Mus musculus (assay: Increase in mean survival days was determined in mice after ip administration of 10 mg/kg). Details: route intraperitoneal.
Assay type: functional

SMILES	Mean survival days [days]
Cn1c(=O)nc2n(-c3ccc(Cl)cc3Cl)c3ccccc3nc-2c1=O	1.7
CCCCc1ccc(-n2c3nc(=O)n(C)c(=O)c-3nc3ccccc32)cc1	0
Cn1c(=O)nc2n(-c3ccc(C(F)(F)F)cc3)c3ccccc3nc-2c1=O	0
Cc1cccc(-n2c3nc(=O)n(C)c(=O)c-3nc3ccccc32)c1	0.8
Cn1c(=O)nc2n(-c3cc(C(F)(F)F)ccc3Cl)c3ccccc3nc-2c1=O	0
Cc1cc(Cl)ccc1-n1c2nc(=O)n(C)c(=O)c-2nc2ccccc21	0
Cn1c(=O)nc2n(-c3cccc(Cl)c3)c3ccccc3nc-2c1=O	0
Cn1c(=O)nc2n(-c3ccc(C#N)cc3)c3ccccc3nc-2c1=O	0

These compounds were tested on Mus musculus (assay: Increase in mean survival days was determined in mice after ip administration of 15 mg/kg). Details: route intraperitoneal.
Assay type: functional

SMILES	Mean survival days [days]
CCc1cccc(-n2c3nc(=O)n(C)c(=O)c-3nc3ccccc32)c1	0
Cn1c(=O)nc2n(-c3ccc(Cl)cc3Cl)c3ccccc3nc-2c1=O	0.5
CCCCc1ccc(-n2c3nc(=O)n(C)c(=O)c-3nc3ccccc32)cc1	0
Cc1cccc(-n2c3nc(=O)n(C)c(=O)c-3nc3ccccc32)c1	0
Cn1c(=O)nc2n(-c3cc(C(F)(F)F)ccc3Cl)c3ccccc3nc-2c1=O	0.2

What follows are compounds tested on Mus musculus (assay: Increase in mean survival days was determined in mice after ip administration of 20 mg/kg). Details: route intraperitoneal.
Assay type: functional

SMILES	Mean survival days [days]
CCc1cccc(-n2c3nc(=O)n(C)c(=O)c-3nc3ccccc32)c1	0
CCCCc1ccc(-n2c3nc(=O)n(C)c(=O)c-3nc3ccccc32)cc1	0
Cn1c(=O)nc2n(-c3ccc(C(F)(F)F)cc3)c3ccccc3nc-2c1=O	0
Cc1cccc(-n2c3nc(=O)n(C)c(=O)c-3nc3ccccc32)c1	0.5
Cn1c(=O)nc2n(-c3cc(C(F)(F)F)ccc3Cl)c3ccccc3nc-2c1=O	0
Cc1cc(Cl)ccc1-n1c2nc(=O)n(C)c(=O)c-2nc2ccccc21	1.2

Each compound was assayed on Mus musculus (assay: Increase in mean survival days was determined in mice after ip administration of 25 mg/kg). Details: route intraperitoneal.
Assay type: functional

SMILES	Mean survival days [days]
CCc1cccc(-n2c3nc(=O)n(C)c(=O)c-3nc3ccccc32)c1	0
CCCCc1ccc(-n2c3nc(=O)n(C)c(=O)c-3nc3ccccc32)cc1	0.1
Cc1cccc(-n2c3nc(=O)n(C)c(=O)c-3nc3ccccc32)c1	0

What follows are compounds tested on Mus musculus (assay: Increase in mean survival days was determined in mice after ip administration of 25 mg/kg; toxic). Details: route intraperitoneal.
Assay type: functional

SMILES	Mean survival days [days]
Cn1c(=O)nc2n(-c3ccc(Cl)cc3Cl)c3ccccc3nc-2c1=O	-1.2
Cn1c(=O)nc2n(-c3cc(C(F)(F)F)ccc3Cl)c3ccccc3nc-2c1=O	0
Cc1cc(Cl)ccc1-n1c2nc(=O)n(C)c(=O)c-2nc2ccccc21	-1.5

These compounds were tested on Mus musculus (assay: Increase in mean survival days was determined in mice after ip administration of 30 mg/kg). Details: route intraperitoneal.
Assay type: functional

SMILES	Mean survival days [days]
CCc1cccc(-n2c3nc(=O)n(C)c(=O)c-3nc3ccccc32)c1	0
CCCCc1ccc(-n2c3nc(=O)n(C)c(=O)c-3nc3ccccc32)cc1	0
Cn1c(=O)nc2n(-c3ccc(C(F)(F)F)cc3)c3ccccc3nc-2c1=O	2
Cc1cccc(-n2c3nc(=O)n(C)c(=O)c-3nc3ccccc32)c1	0
Cn1c(=O)nc2n(-c3cccc(Cl)c3)c3ccccc3nc-2c1=O	0
Cn1c(=O)nc2n(-c3ccc(C#N)cc3)c3ccccc3nc-2c1=O	0

Each compound was assayed on Mus musculus (assay: Increase in mean survival days was determined in mice after ip administration of 30 mg/kg; toxic). Details: route intraperitoneal.
Assay type: functional

SMILES	Mean survival days [days]
Cn1c(=O)nc2n(-c3ccc(Cl)cc3Cl)c3ccccc3nc-2c1=O	-1
Cn1c(=O)nc2n(-c3cc(C(F)(F)F)ccc3Cl)c3ccccc3nc-2c1=O	-0.4
Cc1cc(Cl)ccc1-n1c2nc(=O)n(C)c(=O)c-2nc2ccccc21	-2

The compounds below were run on Mus musculus (assay: Increase in mean survival days was determined in mice after ip administration of 50 mg/kg). Details: route intraperitoneal.
Assay type: functional

SMILES	Mean survival days [days]
CCCCc1ccc(-n2c3nc(=O)n(C)c(=O)c-3nc3ccccc32)cc1	0
Cc1cccc(-n2c3nc(=O)n(C)c(=O)c-3nc3ccccc32)c1	0.5
Cn1c(=O)nc2n(-c3cccc(Cl)c3)c3ccccc3nc-2c1=O	0.4

What follows are compounds tested on Mus musculus (assay: Increase in mean survival days was determined in mice after ip administration of 60 mg/kg). Details: route intraperitoneal.
Assay type: functional

SMILES	Mean survival days [days]
Cn1c(=O)nc2n(-c3cccc(Cl)c3)c3ccccc3nc-2c1=O	0.5

The compounds below were run on Plasmodium vinckei vinckei (assay: Increase in mean survival days of Plasmodium inoculated mice (Mus musculus) after 70 mg/Kg intraperitoneal dose). Details: not given.
Assay type: functional

SMILES	Mean survival days [days]
Cn1c(=O)nc2n(-c3cc(Cl)cc(Cl)c3)c3ccccc3nc-2c1=O	16.5
CCc1cccc(-n2c3nc(=O)n(C)c(=O)c-3nc3ccccc32)c1	0.3
CCCCc1ccc(-n2c3nc(=O)n(C)c(=O)c-3nc3ccccc32)cc1	0.5
Cc1cccc(-n2c3nc(=O)n(C)c(=O)c-3nc3ccccc32)c1	0.3
Cn1c(=O)nc2n(-c3ccc(C#N)cc3)c3ccccc3nc-2c1=O	0

Species: Mus musculus
Assay: Effective dose required to obtain a parasitaemia of 40% 48 hours after treatment in mice
Assay type: functional
Details: not given

SMILES	ED40 [µmol/kg]
Cn1c(=O)nc2n(-c3cc(Cl)cc(Cl)c3)c3ccccc3nc-2c1=O	40.2
Cn1c(=O)nc2n(-c3ccc(C(F)(F)F)cc3)c3ccccc3nc-2c1=O	135

These compounds were tested on Mus musculus (assay: Antimalarial activity was evaluated against Plasmodium vinckei V52 after intraperitoneal administration at dose 30 mg/kg). Details: not given.
Assay type: functional

SMILES	Cured [%]
Cn1c(=O)nc2n(-c3ccc(C#N)cc3)c3ccccc3nc-2c1=O	0

What follows are compounds tested on Plasmodium vinckei vinckei (assay: Antimalarial activity against Plasmodium vinckei V52 on 10 mg/kg intraperitoneal dose). Details: not given.
Assay type: functional

SMILES	Cured [%]
Cn1c(=O)nc2n(-c3cc(Cl)cc(Cl)c3)c3ccccc3nc-2c1=O	100
CCc1cccc(-n2c3nc(=O)n(C)c(=O)c-3nc3ccccc32)c1	0
Cn1c(=O)nc2n(-c3ccc(Cl)cc3Cl)c3ccccc3nc-2c1=O	0
CCCCc1ccc(-n2c3nc(=O)n(C)c(=O)c-3nc3ccccc32)cc1	0
Cn1c(=O)nc2n(-c3ccc(C(F)(F)F)cc3)c3ccccc3nc-2c1=O	0
Cc1cccc(-n2c3nc(=O)n(C)c(=O)c-3nc3ccccc32)c1	0
Cn1c(=O)nc2n(-c3cc(C(F)(F)F)ccc3Cl)c3ccccc3nc-2c1=O	0
Cc1cc(Cl)ccc1-n1c2nc(=O)n(C)c(=O)c-2nc2ccccc21	0
Cn1c(=O)nc2n(-c3cccc(Cl)c3)c3ccccc3nc-2c1=O	0

Each compound was assayed on Mus musculus (assay: Antimalarial activity was evaluated against Plasmodium vinckei V52 after intraperitoneal administration at dose 15 mg/kg). Details: not given.
Assay type: functional

SMILES	Cured [%]
Cn1c(=O)nc2n(-c3cc(Cl)cc(Cl)c3)c3ccccc3nc-2c1=O	100
Cn1c(=O)nc2n(-c3ccc(Cl)cc3Cl)c3ccccc3nc-2c1=O	0
CCCCc1ccc(-n2c3nc(=O)n(C)c(=O)c-3nc3ccccc32)cc1	0
Cc1cccc(-n2c3nc(=O)n(C)c(=O)c-3nc3ccccc32)c1	0
Cn1c(=O)nc2n(-c3cc(C(F)(F)F)ccc3Cl)c3ccccc3nc-2c1=O	0

Each compound was assayed on Mus musculus (assay: Antimalarial activity was evaluated against Plasmodium vinckei vinckei V52 after intraperitoneal administration at dose 25 mg/kg). Details: not given.
Assay type: functional

SMILES	Cured [%]
Cn1c(=O)nc2n(-c3cc(Cl)cc(Cl)c3)c3ccccc3nc-2c1=O	100
CCc1cccc(-n2c3nc(=O)n(C)c(=O)c-3nc3ccccc32)c1	0
Cn1c(=O)nc2n(-c3ccc(Cl)cc3Cl)c3ccccc3nc-2c1=O	0
CCCCc1ccc(-n2c3nc(=O)n(C)c(=O)c-3nc3ccccc32)cc1	0
Cc1cc(Cl)ccc1-n1c2nc(=O)n(C)c(=O)c-2nc2ccccc21	0

The compounds below were run on Mus musculus (assay: Antimalarial activity was evaluated against Plasmodium vinckei V52 after intraperitoneal administration at dose 25 mg/kg). Details: not given.
Assay type: functional

SMILES	Cured [%]
Cc1cccc(-n2c3nc(=O)n(C)c(=O)c-3nc3ccccc32)c1	0
Cn1c(=O)nc2n(-c3cc(C(F)(F)F)ccc3Cl)c3ccccc3nc-2c1=O	0

What follows are compounds tested on Plasmodium vinckei vinckei (assay: Antimalarial activity against Plasmodium vinckei V52 on 30 mg/kg intraperitoneal dose). Details: not given.
Assay type: functional

SMILES	Cured [%]
Cn1c(=O)nc2n(-c3cc(Cl)cc(Cl)c3)c3ccccc3nc-2c1=O	100
CCc1cccc(-n2c3nc(=O)n(C)c(=O)c-3nc3ccccc32)c1	0
Cn1c(=O)nc2n(-c3ccc(Cl)cc3Cl)c3ccccc3nc-2c1=O	0
CCCCc1ccc(-n2c3nc(=O)n(C)c(=O)c-3nc3ccccc32)cc1	0
Cn1c(=O)nc2n(-c3ccc(C(F)(F)F)cc3)c3ccccc3nc-2c1=O	80
Cc1cccc(-n2c3nc(=O)n(C)c(=O)c-3nc3ccccc32)c1	0
Cn1c(=O)nc2n(-c3cc(C(F)(F)F)ccc3Cl)c3ccccc3nc-2c1=O	0
Cc1cc(Cl)ccc1-n1c2nc(=O)n(C)c(=O)c-2nc2ccccc21	0
Cn1c(=O)nc2n(-c3cccc(Cl)c3)c3ccccc3nc-2c1=O	0

What follows are compounds tested on Mus musculus (assay: Antimalarial activity was evaluated against Plasmodium vinckei vinckei V52 after intraperitoneal administration at dose 40 mg/kg). Details: not given.
Assay type: functional

SMILES	Cured [%]
Cn1c(=O)nc2n(-c3cc(Cl)cc(Cl)c3)c3ccccc3nc-2c1=O	100

The compounds below were run on Mus musculus (assay: Antimalarial activity was evaluated against Plasmodium vinckei vinckei V52 after intraperitoneal administration at dose 50 mg/kg). Details: not given.
Assay type: functional

SMILES	Cured [%]
CCCCc1ccc(-n2c3nc(=O)n(C)c(=O)c-3nc3ccccc32)cc1	0

These compounds were tested on Mus musculus (assay: Antimalarial activity was evaluated against Plasmodium vinckei V52 after intraperitoneal administration at dose 50 mg/kg). Details: not given.
Assay type: functional

SMILES	Cured [%]
Cn1c(=O)nc2n(-c3ccc(C(F)(F)F)cc3)c3ccccc3nc-2c1=O	100
Cc1cccc(-n2c3nc(=O)n(C)c(=O)c-3nc3ccccc32)c1	0
Cn1c(=O)nc2n(-c3cccc(Cl)c3)c3ccccc3nc-2c1=O	0

The compounds below were run on Mus musculus (assay: Antimalarial activity was evaluated against Plasmodium vinckei V52 after intraperitoneal administration at dose 60 mg/kg). Details: not given.
Assay type: functional

SMILES	Cured [%]
Cn1c(=O)nc2n(-c3ccc(C(F)(F)F)cc3)c3ccccc3nc-2c1=O	100
Cn1c(=O)nc2n(-c3cccc(Cl)c3)c3ccccc3nc-2c1=O	50

What follows are compounds tested on Mus musculus (assay: Antimalarial activity was evaluated against Plasmodium vinckei V52 after intraperitoneal administration at dose 70 mg/kg). Details: not given.
Assay type: functional

SMILES	Cured [%]
Cn1c(=O)nc2n(-c3cc(Cl)cc(Cl)c3)c3ccccc3nc-2c1=O	60
CCc1cccc(-n2c3nc(=O)n(C)c(=O)c-3nc3ccccc32)c1	0
CCCCc1ccc(-n2c3nc(=O)n(C)c(=O)c-3nc3ccccc32)cc1	0
Cn1c(=O)nc2n(-c3ccc(C#N)cc3)c3ccccc3nc-2c1=O	0

Each compound was assayed on Plasmodium vinckei vinckei (assay: Antimalarial activity against Plasmodium vinckei V52 on 70 mg/kg intraperitoneal dose). Details: not given.
Assay type: functional

SMILES	Cured [%]
Cn1c(=O)nc2n(-c3ccc(C(F)(F)F)cc3)c3ccccc3nc-2c1=O	100
Cc1cccc(-n2c3nc(=O)n(C)c(=O)c-3nc3ccccc32)c1	0
Cn1c(=O)nc2n(-c3cccc(Cl)c3)c3ccccc3nc-2c1=O	100

These compounds were tested on Mus musculus (assay: Antimalarial activity was evaluated against Plasmodium vinckei V52 after intraperitoneal administration at dose 10 mg/kg). Details: not given.
Assay type: functional

SMILES	Cured [%]
Cn1c(=O)nc2n(-c3ccc(C#N)cc3)c3ccccc3nc-2c1=O	0

Each compound was assayed on Plasmodium vinckei vinckei (assay: Antimalarial activity against Plasmodium vinckei V52 after 20 mg/kg intraperitoneal dose). Details: not given.
Assay type: functional

SMILES	Cured [%]
Cn1c(=O)nc2n(-c3cc(Cl)cc(Cl)c3)c3ccccc3nc-2c1=O	100
CCc1cccc(-n2c3nc(=O)n(C)c(=O)c-3nc3ccccc32)c1	0
CCCCc1ccc(-n2c3nc(=O)n(C)c(=O)c-3nc3ccccc32)cc1	0
Cn1c(=O)nc2n(-c3ccc(C(F)(F)F)cc3)c3ccccc3nc-2c1=O	0
Cc1cccc(-n2c3nc(=O)n(C)c(=O)c-3nc3ccccc32)c1	0
Cn1c(=O)nc2n(-c3cc(C(F)(F)F)ccc3Cl)c3ccccc3nc-2c1=O	0
Cc1cc(Cl)ccc1-n1c2nc(=O)n(C)c(=O)c-2nc2ccccc21	0
